Measurements: patent publication US20150080438A1, “6,7-Dihydro-5H-benzo[7]annulene derivatives, processes for their preparation, pharmaceutical products comprising them and their use for preparing medicaments” (Bayer Intellectual Property GmbH, priority 2011, published 2015)

Target: T1, oestrogen receptor (ER) (Homo sapiens, UniProt P03372)
T1 construct: These MVLN cells express, along with the functional oestrogen receptor (ER), a reporter construct; endogenous in cells; host or cells: MVLN cells (MCF7 derivative with ER-responsive luciferase reporter)
T1 sequence (P03372 1-595): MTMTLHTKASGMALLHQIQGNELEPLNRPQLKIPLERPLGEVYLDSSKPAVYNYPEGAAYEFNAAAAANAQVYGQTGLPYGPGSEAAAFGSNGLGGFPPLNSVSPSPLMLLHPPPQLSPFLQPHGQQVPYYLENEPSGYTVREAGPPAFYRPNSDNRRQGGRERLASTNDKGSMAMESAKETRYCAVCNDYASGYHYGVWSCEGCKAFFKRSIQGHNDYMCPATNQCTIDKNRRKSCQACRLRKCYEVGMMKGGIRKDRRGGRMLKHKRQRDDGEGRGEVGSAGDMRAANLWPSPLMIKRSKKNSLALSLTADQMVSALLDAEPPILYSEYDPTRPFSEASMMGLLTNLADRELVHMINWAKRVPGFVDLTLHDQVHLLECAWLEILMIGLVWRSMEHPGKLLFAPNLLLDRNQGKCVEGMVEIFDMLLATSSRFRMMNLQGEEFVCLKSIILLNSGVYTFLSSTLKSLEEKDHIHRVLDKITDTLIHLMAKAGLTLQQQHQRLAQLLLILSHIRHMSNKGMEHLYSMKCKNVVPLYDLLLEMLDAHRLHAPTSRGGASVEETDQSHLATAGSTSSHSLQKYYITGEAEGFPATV
Assay: Anti-oestrogenic action in MVLN cells (inhibition of estradiol-induced luciferase, transactivation antagonism)
Format: cell-based
Conditions: inhibition of estradiol-induced luciferase activity, read-out: Anti-oestrogenic action in vitro: MVLN transactivation antagonism IC50
Excerpt: The anti-oestrogenic action of the claimed pharmacological compounds was investigated in so-called MVLN cells in vitro. MVLN cells are derivatives of the hormone-responsive MCF7 breast cancer cells known by a person skilled in the art. These MVLN cells express, along with the functional oestrogen receptor (ER), a reporter construct, which under ER-activation expresses luciferase. Determination of the activity of the induced luciferase permits a direct conclusion on the oestrogen properties of substances. To investigate the anti-oestrogenic properties of the pharmacological compounds, they were investigated in the presence of oestrogen for their potential for inhibiting the luciferase signal induced by estradiol.
The claimed pharmacological test substances were investigated in MVLN cells for their anti-oestrogenic potential, as described (see Table 2).

Structure (SMILES) | IC50
CN(CCCCCCC1=C(c2ccc(C#N)cc2)CCCc2cc(O)ccc21)CCCS(=O)(=O)CCCC(F)(F)C(F)(F)F [Example 22, 4-{3-Hydroxy-9-[6-(methyl{3-[(4,4,5,5,5-pentafluoropentyl)sulphonyl]propyl}amino)hexyl]-6,7-dihydro-5H-benzo[7]annulen-8-yl}benzonitrile] | 17 nM
CN(CCCCCC1=C(c2ccc(F)c(O)c2)CCCc2cc(O)ccc21)CCCCS(=O)(=O)CCCC(F)(F)C(F)(F)F [Example 25, 8-(4-Fluoro-3-hydroxyphenyl)-9-[5-(methyl{4-[(4,4,5,5,5-pentafluoropentyl)sulphonyl]butyl}amino)pentyl]-6,7-dihydro-5H-benzo[7]annulen-3-ol] | 24 nM
CN(CCCCCCC1=C(c2ccc(F)c(O)c2)CCCc2cc(O)ccc21)CCCCCS(=O)(=O)CCCC(F)(F)C(F)(F)F [Example 33, 8-(4-Fluoro-3-hydroxyphenyl)-9-[6-(methyl{5-[(4,4,5,5,5-pentafluoropentyl)sulphonyl]pentyl}amino)hexyl]-6,7-dihydro-5H-benzo[7]annulen-3-ol] | 6 nM
CN(CCCCCCC1=C(c2ccc(F)c(O)c2)CCCc2cc(O)ccc21)CCCCCCS(=O)(=O)CCCC(F)(F)C(F)(F)F [Example 35, 8-(4-Fluoro-3-hydroxyphenyl)-9-[6-(methyl{6-[(4,4,5,5,5-pentafluoropentyl)sulphonyl]hexyl}amino)hexyl]-6,7-dihydro-5H-benzo[7]annulen-3-ol] | 11 nM
CN(CCCCCC1=C(c2ccc(O)c(F)c2)CCCc2cc(O)ccc21)CCCSCCCC(F)(F)C(F)(F)F [Example 36, 8-(3-Fluoro-4-hydroxyphenyl)-9-[5-(methyl{3-[(4,4,5,5,5-pentafluoropentyl)sulphanyl]propyl}amino)pentyl]-6,7-dihydro-5H-benzo[7]annulen-3-ol] | 3 nM
CN(CCCCCC1=C(c2cccnc2)CCCc2cc(O)ccc21)CCCSCCCC(F)(F)C(F)(F)F [Example 39, 9-[5-(Methyl{3-[(4,4,5,5,5-pentafluoropentyl)sulphanyl]propyl}amino)pentyl]-8-(3-pyridyl)-6,7-dihydro-5H-benzo[7]annulen-3-ol] | 146 nM
CN(CCCCCC1=C(c2cccnc2)CCCc2cc(O)ccc21)CCCS(=O)(=O)CCCC(F)(F)C(F)(F)F [Example 41, 9-[5-(Methyl{3-[(4,4,5,5,5-pentafluoropentyl)sulphonyl]propyl}amino)pentyl]-8-(3-pyridyl)-6,7-dihydro-5H-benzo[7]annulen-3-ol] | 110 nM
CN(CCCCCCC1=C(c2cccnc2)CCCc2cc(O)ccc21)CCCSCCCC(F)(F)C(F)(F)F [Example 42, 9-[6-(Methyl{3-[(4,4,5,5,5-pentafluoropentyl)sulphanyl]propyl}amino)hexyl]-8-(3-pyridyl)-6,7-dihydro-5H-benzo[7]annulen-3-ol] | 7 nM
CN(CCCCCC1=C(c2ccc(S(C)(=O)=O)cc2)CCCc2cc(O)ccc21)CCCSCCCC(F)(F)C(F)(F)F [Example 45, 8-(4-Mesylphenyl)-9-[5-(methyl{3-[(4,4,5,5,5-pentafluoropentyl)sulphanyl]propyl}amino)pentyl]-6,7-dihydro-5H-benzo[7]annulen-3-ol] | 65 nM
CN(CCCCCC1=C(c2ccc(S(C)(=O)=O)cc2)CCCc2cc(O)ccc21)CCCS(=O)(=O)CCCC(F)(F)C(F)(F)F [Example 47, 8-(4-Mesylphenyl)-9-[5-(methyl{3-[(4,4,5,5,5-pentafluoropentyl)sulphonyl]propyl}amino)pentyl]-6,7-dihydro-5H-benzo[7]annulen-3-ol] | 34 nM
CN(CCCCCCC1=C(c2ccccc2)CCCc2cc(O)ccc21)CCCS(=O)(=O)CCC(F)(F)F [Example 60, 9-[6-(Methyl{3-[(3,3,3-trifluoropropyl)sulphonyl]propyl}amino)hexyl]-8-phenyl-6,7-dihydro-5H-benzo[7]annulen-3-ol] | 26 nM
CN(CCCCCCC1=C(c2ccccc2)CCCc2cc(O)ccc21)CCCS(=O)(=O)CCC(F)(F)C(F)(F)F [Example 62, 9-[6-(Methyl{3-[(3,3,4,4,4-pentafluorobutyl)sulphonyl]propyl}amino)hexyl]-8-phenyl-6,7-dihydro-5H-benzo[7]annulen-3-ol] | 12 nM
CN(CCCCCCC1=C(c2ccccc2)CCCc2cc(O)ccc21)CCCS(=O)(=O)CCCC(F)(F)C(F)(F)F [Example 63, 9-[6-(Methyl{3-[(4,4,5,5,5-pentafluoropentyl)sulphonyl]propyl}amino)hexyl]-8-phenyl-6,7-dihydro-5H-benzo[7]annulen-3-ol] | 9 nM
CCN(CCCCCCC1=C(c2ccccc2)CCCc2cc(O)ccc21)CCCS(=O)(=O)CCCC(F)(F)C(F)(F)F [Example 69, 9-[6-(Ethyl{3-[(4,4,5,5,5-pentafluoropentyl)sulphonyl]propyl}amino)hexyl]-8-phenyl-6,7-dihydro-5H-benzo[7]annulen-3-ol] | 6 nM

Next, values leading:

IC50 | Structure (SMILES)
5 nM | CN(CCCCCC1=C(c2cccc(O)c2)CCCc2cc(O)ccc21)CCCS(=O)(=O)CCCC(F)(F)C(F)(F)F [Example 5, 8-(3-Hydroxyphenyl)-9-[5-(methyl{3-[(4,4,5,5,5-pentafluoropentyl)sulphonyl]propyl}amino)pentyl]-6,7-dihydro-5H-benzo[7]annulen-3-ol]
8 nM | CN(CCCCCC1=C(c2cccc(O)c2)CCCc2cc(O)ccc21)CCCCCS(=O)(=O)CCCC(F)(F)C(F)(F)F [Example 9, 8-(3-Hydroxyphenyl)-9-[5-(methyl{5-[(4,4,5,5,5-pentafluoropentyl)sulphonyl]pentyl}amino)pentyl]-6,7-dihydro-5H-benzo[7]annulen-3-ol]
4 nM | CN(CCCCCCS(=O)(=O)CCCC(F)(F)C(F)(F)F)CCCCCC1=C(c2cccc(O)c2)CCCc2cc(O)ccc21 [Example 11, 8-(3-Hydroxyphenyl)-9-[5-(methyl{6-[(4,4,5,5,5-pentafluoropentyl)sulphonyl]hexyl}amino)pentyl]-6,7-dihydro-5H-benzo[7]annulen-3-ol]
3 nM | CN(CCCCCCC1=C(c2cccc(O)c2)CCCc2cc(O)ccc21)CCCCS(=O)(=O)CCCC(F)(F)C(F)(F)F [Example 15, 8-(3-Hydroxyphenyl)-9-[6-(methyl{4-[(4,4,5,5,5-pentafluoropentyl)sulphonyl]butyl}amino)hexyl]-6,7-dihydro-5H-benzo[7]annulen-3-ol]
4 nM | CN(CCCCCCC1=C(c2cccc(O)c2)CCCc2cc(O)ccc21)CCCCCS(=O)(=O)CCCC(F)(F)C(F)(F)F [Example 17, 8-(3-Hydroxyphenyl)-9-[6-(methyl{5-[(4,4,5,5,5-pentafluoropentyl)sulphonyl]pentyl}amino)hexyl]-6,7-dihydro-5H-benzo[7]annulen-3-ol]
3 nM | CN(CCCCCCC1=C(c2ccc(F)c(O)c2)CCCc2cc(O)ccc21)CCCCS(=O)(=O)CCCC(F)(F)C(F)(F)F [Example 31, 8-(4-Fluoro-3-hydroxyphenyl)-9-[6-(methyl{4-[(4,4,5,5,5-pentafluoropentyl)sulphonyl]butyl}amino)hexyl]-6,7-dihydro-5H-benzo[7]annulen-3-ol]
1 nM | CN(CCCCCCC1=C(c2cccc(O)c2)CCCc2cc(O)ccc21)CCCCS(=O)(=O)CCCC(F)(F)F [Example 52, 8-(3-Hydroxyphenyl)-9-[6-(methyl{4-[(4,4,4-trifluorobutyl)sulphonyl]butyl}amino)hexyl]-6,7-dihydro-5H-benzo[7]annulen-3-ol]
2 nM | CN(CCCCCCC1=C(c2cccc(O)c2)CCCc2cc(O)ccc21)CCCS(=O)(=O)CCC(F)(F)C(F)(F)F [Example 54, 8-(3-Hydroxyphenyl)-9-[6-(methyl{3-[(3,3,4,4,4-pentafluorobutyl)sulphonyl]propyl}amino)hexyl]-6,7-dihydro-5H-benzo[7]annulen-3-ol]
5 nM | CN(CCCCCCC1=C(c2ccccc2)CCCc2cc(O)ccc21)CCCS(=O)(=O)CCCC(F)(F)F [Example 57, 9-[6-(Methyl{3-[(4,4,4-trifluorobutyl)sulphonyl]propyl}amino)hexyl]-8-phenyl-6,7-dihydro-5H-benzo[7]annulen-3-ol]
6 nM | CCN(CCCCCCC1=C(c2cccc(O)c2)CCCc2cc(O)ccc21)CCCS(=O)(=O)CCC(F)(F)F [Example 65, 9-[6-(Ethyl{3-[(3,3,3-trifluoropropyl)sulphonyl]propyl}amino)hexyl]-8-(3-hydroxyphenyl)-6,7-dihydro-5H-benzo[7]annulen-3-ol]
3 nM | CN(CCCCCCC1=C(c2ccccc2)CCCc2cc(O)ccc21)CCCCS(=O)(=O)CCCC(F)(F)C(F)(F)F [Example 67, 9-[6-(Methyl{4-[(4,4,5,5,5-pentafluoropentyl)sulphonyl]butyl}amino)hexyl]-8-phenyl-6,7-dihydro-5H-benzo[7]annulen-3-ol]
